PubChem BioAssay (NCI)
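48-hour exposure; five concentrations; linearly interpolated endpoints. GI50 marks 50% less growth. TGI denotes the concentration required for complete inhibition of growth.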

Columns and labels:
Test in all cases: growth of human tumour cells (NCI), 48 h
[1] = test system: HCT-116 colon
[2] = test system: ACHN renal
[3] = test system: OVCAR-4 ovarian
[4] = test system: MALME-3M melanoma
[5] = test system: NCI-H460 lung
[6] = test system: SNB-19 CNS
[7] = test system: HOP-92 NSCLC
[8] = test system: BT-549 breast
[9] = test system: CAKI-1 renal
[10] = test system: SW-620 colon

Structure (SMILES)	GI50 [1] [µM]	TGI [1] [µM]	GI50 [2] [µM]	TGI [2] [µM]	GI50 [3] [µM]	TGI [3] [µM]	GI50 [4] [µM]	TGI [4] [µM]	GI50 [5] [µM]	TGI [5] [µM]	GI50 [6] [µM]	TGI [6] [µM]	GI50 [7] [µM]	TGI [7] [µM]	GI50 [8] [µM]	TGI [8] [µM]	GI50 [9] [µM]	TGI [9] [µM]	GI50 [10] [µM]	TGI [10] [µM]
O=C(/C=C/C12c3ccccc3C(c3ccccc31)C1C(=O)NC(=O)C12)c1ccc(Cl)cc1 (stereo unspecified)	1.23	2.61	1.65	3.02	1.42	2.76	1.51	2.88	1.8	4.31	1.58	3.04	1.32	2.86	1.34	2.69	1.24	2.52	1.89	4.26
C[C@]12CCNC(=O)C=C1CC[C@@H]1C2CC[C@@]2(C)C1CC[C@@H]2OC(=O)COc1ccc(N(CCCl)CCCl)cc1 (stereo partly specified)	–	13.9	–	11.2	–	20.5	–	24.6	–	7.26	–	50.7	–	23.3	–	60.2	–	23	–	16.5
CCOC(=O)c1ccc2c(c1)[n+](=O)c(C(C)=O)c(C(F)(F)F)n2[O-]	1.39	3.34	1.59	3.01	1.36	3.22	1.4	2.83	1.46	2.86	1.73	4.18	1.4	2.86	1.54	3.21	1.39	2.94	1.52	3.26
CCOC(=O)c1cnn2c3ccccc3n(S(=O)(=O)c3ccc(OC)cc3)c12	0.305	> 50.4	0.811	> 100	1.58	> 100	0.598	> 100	0.753	> 100	0.712	> 100	0.67	16	0.34	13.1	0.204	> 83.7	0.269	> 100
Nc1ccccc1C#C/C=C\C#Cc1c(F)c(F)c(F)c(F)c1F	16	31.1	14.5	30.7	20.2	96	18.6	40.1	24.4	> 100	26	55.4	19.5	41.4	10.3	28.6	10.9	29.1	18.7	42
O=C1c2ccccc2C(=O)c2c(NCC3CO3)ccc(NCC3CO3)c21 (stereo unspecified)	–	1.21	–	2.62	–	34	–	18.3	–	> 53.9	–	> 39.3	–	38	–	14.1	–	7.79	–	6.04
CCN1C[C@]2(COC)[C@H](O)C[C@H](OC)[C@]34C1[C@H]([C@H](OC)[C@H]23)[C@]1(OC(C)=O)[C@H]2[C@@H](OC(=O)c3ccccc3)[C@](O)(C[C@H]24)[C@@H](OC)[C@@H]1O	–	> 100	–	> 100	–	> 100	–	> 100	–	> 100	–	> 100	–	> 100	–	> 100	–	> 100	–	> 100
Cc1ccc(-c2nc([P+](c3ccccc3)(c3ccccc3)c3ccccc3)c(Nc3ccccc3)o2)cc1	0.265	1.22	1.04	2.22	0.32	1.26	0.25	0.801	0.515	1.8	1.16	2.41	0.188	1.16	1.53	3.02	1.08	2.34	0.446	1.66
Cc1ccc(NCCN(C)C)c2c(=O)c3ccccc3sc12	1.47	2.8	1.68	3.53	2.67	8.76	1.66	3.28	1.41	3.01	2.24	6.63	1.04	4.41	3.89	15.5	2.08	7.56	1.46	3.02
Cc1c(C(N)=O)sc2c1c(=O)n(Cc1ccccc1)c1nnc(-c3ccc(Br)cc3)n21	1.75	13.6	1.46	12.3	2.51	15.8	2.94	13.7	0.813	6.55	2.91	17.5	5.09	21.3	3.85	18.9	0.431	6.96	2.98	18.9
NNC(=O)c1ccc(OCc2nc3ccccc3[nH]2)cc1	–	> 100	–	> 100	–	> 100	–	> 100	–	> 100	–	> 100	–	> 100	–	> 100	–	> 100	–	> 100
CN1CCN(Cc2ccc3c(NNC(=O)c4ccccc4)nc4cc(F)ccc4n23)CC1	0.316	16	0.0848	11.6	0.335	37.1	0.584	12.7	0.195	11	0.587	> 100	1.12	41.5	0.87	57.9	0.248	14.4	0.519	22.4
NC(=S)N=Nc1c(O)c2ccccc2c2ccccc12	4.35	51.5	8.07	> 100	13	37	1.96	3.58	3.23	11.6	3.12	12.6	18.4	51.6	1.97	4.95	37.9	> 100	3.44	26.6
CCOC(=O)/C=C/C(=O)[C@H](CC(C)C)NC(=O)[C@H](Cc1ccccc1)NC(=O)OCc1ccccc1	2.87	9.43	2.36	5.72	12.9	26.6	3.89	15.3	16.2	38.2	12.6	28.1	2.56	6.99	14.4	27.6	8.82	21.7	2.86	8.16
C[C@@H]1COCCN1c1cc(C2([S@@](C)(=N)=O)CC2)nc(-c2ccnc3[nH]ccc23)n1	7.38	> 100	2.17	> 51.3	3.41	63.9	7.32	54.6	3.09	> 69.8	7.72	> 100	1.56	15.4	2.68	23.7	11.7	> 79.2	8	> 100
O=C(Nc1ccccc1O)c1ccc(NS(=O)(=O)c2cccc3cccnc23)cc1	0.752	3.1	1.21	5.78	2.24	24.5	0.827	> 25	1.05	7.28	2.89	> 14.8	0.691	3.22	2.79	7.94	0.998	4.8	0.81	4.88
O=C(C[P+](c1ccccc1)(c1ccccc1)c1ccccc1)C[P+](c1ccccc1)(c1ccccc1)c1ccccc1	0.203	0.547	0.144	0.393	0.135	0.269	0.335	1.48	0.546	2.3	1.31	2.78	0.0696	0.294	0.363	1.24	0.161	0.357	0.242	0.816
CC1=C(C)C2(O)C(=C(C)C1=O)/C(=C(/O)c1ccccc1)c1nc3ccccc3n12 (stereo unspecified)	29.4	72	16.4	34.4	13.5	27.1	19.1	43.9	18.5	50.8	19.7	46.9	16.1	41.7	22.6	54.8	17.3	55.9	29.4	> 100
COc1ccc(C(CC(=O)c2ccccc2)C(C(=O)c2ccccc2)C(c2ccc(OC)cc2)C2C(=O)NC(=S)NC2=O)cc1 (stereo unspecified)	15.4	37.4	12.3	50.9	30.3	> 100	19.8	58.4	5.88	50.7	24.9	> 100	3.1	43.1	12.8	49.8	2.53	11.8	14.3	39.9
COc1cccc(/C(C)=N/NC(=O)CSc2nc3ccccc3c(=O)n2CCc2ccc(S(N)(=O)=O)cc2)c1	–	–	3.19	15.9	1.85	4.28	1.98	4.62	–	–	2.89	7.87	1.95	11.9	2.27	40.9	3.7	15.4	2.77	7.5
Cc1ccc(-c2nc(-c3cn(C)c4ncccc34)cs2)cc1	3.11	12.3	7.65	29.2	12.8	46.4	4.85	26.5	3.43	14.9	5.27	30.5	4.73	23.8	8	32.4	2.27	15.2	1.95	8.91
CN(C)c1ccc(C(c2ccc(Cl)cc2)c2ccc(N(C)C)cc2)cc1	–	> 100	–	> 100	–	–	–	> 100	–	> 100	–	> 100	–	> 100	–	> 100	–	> 100	–	> 100
c1ccc([As]=[As]c2ccccc2)cc1 (stereo unspecified)	1.14	3.7	1.28	2.65	1.08	2.43	1.29	3.23	2.01	4.15	1.42	2.8	1.22	3.08	1.23	2.87	1.31	3.22	0.586	2.02
CCS(=O)(=O)c1ccc(OC)c(Nc2ncc(-c3ccccc3Cl)o2)c1	10.1	> 25	> 19.1	> 25	13	> 25	> 25	> 25	> 17.7	> 25	> 21.9	> 25	3.29	21.1	11.8	> 25	24.3	> 25	8.38	> 25
CC(=O)c1cc(C(=O)c2ccc3c(c2)Sc2ccccc2N3)c2c(C)cccn12	0.27	10.5	1.42	> 100	2.13	> 100	13.6	> 100	0.213	4.76	0.246	> 100	0.767	22.6	0.777	23.8	–	–	0.265	> 100
C#COc1cccc(Nc2ncnc3cc(NC(=O)[C@H](C)Cl)ccc23)c1	2.23	> 62.5	3.05	> 62.5	–	–	4.07	> 62.5	2.18	> 62.5	4.72	> 62.5	> 62.5	> 62.5	3.22	> 62.5	2.95	> 62.5	2.58	> 62.5
